Data as given in the supplement of paper PMC10307832.

Assays:
Assay in all cases: relative viability (nuclei count vs DMSO), 5 days (fraction); higher = more cells survive
Palbociclib + Tozasertib = compound: CC(=O)c1c(C)c2cnc(Nc3ccc(N4CCNCC4)cn3)nc2n(C2CCCC2)c1=O [Palbociclib] + Cc1cc(Nc2cc(N3CCN(C)CC3)nc(Sc3ccc(NC(=O)C4CC4)cc3)n2)n[nH]1 [Tozasertib] (partner 0.1 µM)
In short: (§1)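 One day after seeding in 1536-well plates, lung cancer cell lines were dosed by pin tool. Dosing was either single-drug or a fixed anchor-drug dose plus five library-drug doses (not always all listed) in √10 steps. After 5 days, nuclei were stained in one fix-and-stain step and counted on 4× images, and relative viability is the nuclei count of treated wells over that of vehicle wells, given as the median of duplicate plates.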

Palbociclib + Crizotinib = compound: CC(=O)c1c(C)c2cnc(Nc3ccc(N4CCNCC4)cn3)nc2n(C2CCCC2)c1=O [Palbociclib] + C[C@@H](Oc1cc(-c2cnn(C3CCNCC3)c2)cnc1N)c1c(Cl)ccc(F)c1Cl [Crizotinib] (partner 1 µM)
In short: as §1

Palbociclib + Linsitinib = compound: CC(=O)c1c(C)c2cnc(Nc3ccc(N4CCNCC4)cn3)nc2n(C2CCCC2)c1=O [Palbociclib] + C[C@]1(O)C[C@@H](c2nc(-c3ccc4ccc(-c5ccccc5)nc4c3)c3c(N)nccn32)C1 [Linsitinib] (partner 1 µM)
In short: as §1

Palbociclib + Dasatinib = compound: CC(=O)c1c(C)c2cnc(Nc3ccc(N4CCNCC4)cn3)nc2n(C2CCCC2)c1=O [Palbociclib] + Cc1nc(Nc2ncc(C(=O)Nc3c(C)cccc3Cl)s2)cc(N2CCN(CCO)CC2)n1 [Dasatinib] (partner 0.075 µM)
In short: as §1

Row | Cell Line | relative viability (Palbociclib + Tozasertib; first compound 0.01 µM) | relative viability (Palbociclib + Tozasertib; first compound 0.03162 µM) | relative viability (Palbociclib + Tozasertib; first compound 0.1 µM) | relative viability (Palbociclib + Tozasertib; first compound 0.3162 µM) | relative viability (Palbociclib + Tozasertib; first compound 1 µM) | relative viability (Palbociclib + Crizotinib; first compound 0.01 µM) | relative viability (Palbociclib + Crizotinib; first compound 0.03162 µM) | relative viability (Palbociclib + Crizotinib; first compound 0.1 µM) | relative viability (Palbociclib + Crizotinib; first compound 0.3162 µM) | relative viability (Palbociclib + Crizotinib; first compound 1 µM) | relative viability (Palbociclib + Linsitinib; first compound 0.01 µM) | relative viability (Palbociclib + Linsitinib; first compound 0.03162 µM) | relative viability (Palbociclib + Linsitinib; first compound 0.1 µM) | relative viability (Palbociclib + Linsitinib; first compound 0.3162 µM) | relative viability (Palbociclib + Linsitinib; first compound 1 µM) | relative viability (Palbociclib + Dasatinib; first compound 0.01 µM) | relative viability (Palbociclib + Dasatinib; first compound 0.03162 µM) | relative viability (Palbociclib + Dasatinib; first compound 0.1 µM) | relative viability (Palbociclib + Dasatinib; first compound 0.3162 µM) | relative viability (Palbociclib + Dasatinib; first compound 1 µM)
1 | CAL-12T | 0.294 | 0.307 | 0.305 | 0.259 | 0.271 | 0.598 | 0.464 | 0.466 | 0.511 | 0.374 | 0.9 | 0.699 | 0.768 | 0.679 | 0.56 | 0.486 | 0.383 | 0.248 | 0.273 | 0.22
2 | HCC-827 | 0.424 | 0.4 | 0.358 | 0.389 | 0.366 | 0.904 | 0.889 | 0.844 | 0.787 | 0.781 | 0.945 | 0.879 | 0.88 | 0.885 | 0.71 | 0.296 | 0.234 | 0.311 | 0.264 | 0.288
3 | ABC-1 | 0.161 | 0.184 | 0.18 | 0.215 | 0.217 | 0.935 | 1.16 | 0.93 | 0.832 | 0.591 | 1.06 | 0.925 | 0.666 | 0.583 | 0.382 | 0.546 | 0.537 | 0.493 | 0.457 | 0.377
4 | SK-LU-1 | 0.334 | 0.33 | 0.266 | 0.251 | 0.228 | 0.908 | 0.738 | 0.624 | 0.67 | 0.471 | 0.975 | 1.06 | 0.777 | 0.771 | 0.627 | 0.183 | 0.157 | 0.147 | 0.133 | 0.161
5 | NCI-H2085 | 0.84 | 0.701 | 0.689 | 0.635 | 0.523 | 0.895 | 0.823 | 0.513 | 0.695 | 0.576 | 1.01 | 0.785 | 0.77 | 0.662 | 0.571 | 0.233 | 0.282 | 0.209 | 0.252 | 0.191
